# Laboratory results from ChEMBL document CHEMBL1156272, “Discovery and SAR of novel pyrazole-based thioethers as cathepsin S inhibitors. Part 2: Modification of P3, P4, and P5 regions” (Bioorg Med Chem Lett, 2010).
# What was measured:
# [1] = biological target: T1, Cathepsin S (Homo sapiens, UniProt P25774); test: Inhibition of human cathepsin S by ADAM-28 substrate-based fluorescence assay
# [2] = biological target: T1, Cathepsin S; test: Inhibition of cathepsin S in human JY cells assessed as accumulation of invariant chain p10 fragment after 24 hrs by Western blot analysis; assay type: cell-based
# [3] = biological target: Voltage-gated inwardly rectifying potassium channel KCNH2 (Homo sapiens, UniProt Q12809); test: Inhibition of human ERG by astemizole binding assay
# Chain of Voltage-gated inwardly rectifying potassium channel KCNH2 (Q12809 whole entry): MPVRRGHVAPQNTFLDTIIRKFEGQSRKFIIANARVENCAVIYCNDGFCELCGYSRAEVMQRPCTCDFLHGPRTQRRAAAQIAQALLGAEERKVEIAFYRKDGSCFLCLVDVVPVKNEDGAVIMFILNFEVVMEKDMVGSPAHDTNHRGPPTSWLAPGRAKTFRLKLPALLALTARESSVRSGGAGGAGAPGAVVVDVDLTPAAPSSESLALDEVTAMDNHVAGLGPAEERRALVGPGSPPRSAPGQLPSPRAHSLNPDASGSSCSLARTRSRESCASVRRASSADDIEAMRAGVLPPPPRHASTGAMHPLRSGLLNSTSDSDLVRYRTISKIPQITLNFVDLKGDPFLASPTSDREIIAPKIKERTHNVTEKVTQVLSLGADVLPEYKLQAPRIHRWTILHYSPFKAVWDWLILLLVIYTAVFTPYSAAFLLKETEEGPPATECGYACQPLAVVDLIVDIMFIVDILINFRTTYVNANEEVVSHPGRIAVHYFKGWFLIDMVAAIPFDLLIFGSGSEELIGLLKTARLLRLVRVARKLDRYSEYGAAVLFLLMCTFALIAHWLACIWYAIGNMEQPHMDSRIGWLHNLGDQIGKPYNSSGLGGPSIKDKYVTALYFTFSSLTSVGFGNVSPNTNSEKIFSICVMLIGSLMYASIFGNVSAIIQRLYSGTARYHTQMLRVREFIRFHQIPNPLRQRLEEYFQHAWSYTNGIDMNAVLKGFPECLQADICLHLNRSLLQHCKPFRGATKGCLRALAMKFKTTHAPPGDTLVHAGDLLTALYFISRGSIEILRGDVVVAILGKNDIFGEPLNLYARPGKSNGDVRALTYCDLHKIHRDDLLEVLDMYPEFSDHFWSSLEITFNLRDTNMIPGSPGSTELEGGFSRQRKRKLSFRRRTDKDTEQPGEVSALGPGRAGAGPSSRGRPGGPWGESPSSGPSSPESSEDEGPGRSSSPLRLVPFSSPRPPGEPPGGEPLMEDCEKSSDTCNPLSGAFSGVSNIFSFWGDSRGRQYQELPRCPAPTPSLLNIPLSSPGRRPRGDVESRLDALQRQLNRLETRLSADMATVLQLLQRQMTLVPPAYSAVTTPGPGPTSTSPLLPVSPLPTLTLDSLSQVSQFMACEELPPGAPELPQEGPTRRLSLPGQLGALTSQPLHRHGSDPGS
# T1 sequence (P25774 whole entry, the tested form may be a part): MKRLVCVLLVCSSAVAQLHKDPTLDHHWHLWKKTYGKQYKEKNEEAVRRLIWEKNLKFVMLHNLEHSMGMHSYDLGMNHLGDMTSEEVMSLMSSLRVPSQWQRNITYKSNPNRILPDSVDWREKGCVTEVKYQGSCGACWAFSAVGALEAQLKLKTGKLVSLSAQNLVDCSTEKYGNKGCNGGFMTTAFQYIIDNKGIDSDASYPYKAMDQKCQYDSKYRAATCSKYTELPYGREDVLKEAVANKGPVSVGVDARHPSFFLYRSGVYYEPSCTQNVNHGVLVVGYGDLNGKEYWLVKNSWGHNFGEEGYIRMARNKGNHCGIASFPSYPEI
IC50 [1] [nM],IC50 [2] [nM],SMILES,inhibition (INH) [3]
420,2520,CS(=O)(=O)N1CCc2c(c(-c3ccc(C(F)(F)F)c(SCCN4CCOCC4)c3)nn2CC(O)CN2CCCCC2)C1 (racemic),–
–,62,CS(=O)(=O)N1CCc2c(c(-c3ccc(C(F)(F)F)c(SCCN4CCCCC4)c3)nn2CC(O)CN2CCC(c3ccccn3)CC2)C1 (racemic),Active
58,120,CS(=O)(=O)N1CCc2c(c(-c3ccc(C(F)(F)F)c(SCCN4CCC(F)CC4)c3)nn2C[C@@H](O)CN2CCCCC2)C1,–
10,160,CS(=O)(=O)N1CCc2c(c(-c3ccc(C(F)(F)F)c(SCCN4CCCCC4)c3)nn2CC(O)CN2CCC(c3ccccc3C#N)CC2)C1 (racemic),Active
–,220,CS(=O)(=O)N1CCc2c(c(-c3ccc(C(F)(F)F)c(SCCN4CCCCC4)c3)nn2CC(O)CN2CCN(C3CC3)CC2)C1 (racemic),–
–,152,CS(=O)(=O)N1CCc2c(c(-c3ccc(C(F)(F)F)c(SCCN4CCCCC4)c3)nn2CC(O)CN2CCC(N3CCCC3=O)CC2)C1 (racemic),–
218,81,CS(=O)(=O)N1CCc2c(c(-c3ccc(C(F)(F)F)c(SCCN4CCCCC4)c3)nn2CC(O)CN2CCC(C3CCCC3)CC2)C1 (racemic),–
335,401,CS(=O)(=O)N1CCc2c(c(-c3ccc(C(F)(F)F)c(SCCN4CCCCC4)c3)nn2CC(O)CN2CCCC2)C1 (racemic),–
204,335,CS(=O)(=O)N1CCc2c(c(-c3ccc(C(F)(F)F)c(SCCN4CCCCC4)c3)nn2CC(O)CN2CCCCC2)C1 (racemic),–
–,493,CS(=O)(=O)N1CCc2c(c(-c3ccc(C(F)(F)F)c(SCCN4CCC(F)CC4)c3)nn2CC(O)CN2CCCCC2)C1 (racemic),–
395,810,CS(=O)(=O)N1CCc2c(c(-c3ccc(C(F)(F)F)c(SCCN4CCC(F)CC4)c3)nn2C[C@H](O)CN2CCCCC2)C1,–
–,458,CS(=O)(=O)N1CCc2c(c(-c3ccc(C(F)(F)F)c(SCCN4CCCC4)c3)nn2CC(O)CN2CCCCC2)C1 (racemic),–
325,889,CS(=O)(=O)N1CCc2c(c(-c3ccc(C(F)(F)F)c(SCCN4CCCCC4)c3)nn2CC(O)CN2CCOCC2)C1 (racemic),–

# The remaining lines, values behind:
SMILES,IC50 [1] [nM],IC50 [2] [nM],inhibition (INH) [3]
O=C(CO)N1CCc2c(c(-c3ccc(C(F)(F)F)c(SCCN4CCC(F)CC4)c3)nn2C[C@@H](O)CN2CCCCC2)C1,235,–,–
O=C(c1cccs1)N1CCc2c(c(-c3ccc(C(F)(F)F)c(SCCN4CCC(F)CC4)c3)nn2C[C@@H](O)CN2CCCCC2)C1,355,–,–
CCCNCC(O)Cn1nc(-c2ccc(C(F)(F)F)c(SCCN3CCCCC3)c2)c2c1CCN(S(C)(=O)=O)C2 (racemic),595,–,–
OC(CN1CCCCC1)Cn1nc(-c2ccc(C(F)(F)F)c(SCCN3CCC(F)CC3)c2)c2c1CCNC2 (stereo unspecified),9600,–,–
NC(=O)N1CCc2c(c(-c3ccc(C(F)(F)F)c(SCCN4CCC(F)CC4)c3)nn2C[C@@H](O)CN2CCCCC2)C1,235,–,–
CS(=O)(=O)N1CCc2c(c(-c3ccc(C(F)(F)F)c(SCCN4CCCCC4)c3)nn2CC(O)CN2CCC(C(=O)N3CCCC3)CC2)C1 (racemic),–,96,–
O=C(c1nc[nH]n1)N1CCc2c(c(-c3ccc(C(F)(F)F)c(SCCN4CCC(F)CC4)c3)nn2C[C@@H](O)CN2CCCCC2)C1,205,320,–
CS(=O)(=O)N1CCc2c(c(-c3ccc(C(F)(F)F)c(SCCN)c3)nn2CC(O)CN2CCCCC2)C1 (racemic),1130,–,–
CC(=O)N1CCc2c(c(-c3ccc(C(F)(F)F)c(SCCN4CCC(F)CC4)c3)nn2C[C@@H](O)CN2CCCCC2)C1,385,–,–
NC(=O)C(=O)N1CCc2c(c(-c3ccc(C(F)(F)F)c(SCCN4CCC(F)CC4)c3)nn2C[C@@H](O)CN2CCCCC2)C1,70,190,–
CC(O)C(=O)N1CCc2c(c(-c3ccc(C(F)(F)F)c(SCCN4CCC(F)CC4)c3)nn2C[C@@H](O)CN2CCCCC2)C1 (stereo partly specified),245,–,–
